# From PMC8119899, “A Single Mutation in the Outer Lipid-Facing Helix of a Pentameric Ligand-Gated Ion Channel Affects Channel Function Through a Radially-Propagating Mechanism” (Frontiers in Molecular Biosciences, 2021)
# Positions count from the first letter of the chain named.
# Legend:
# Type in all cases: cell-based
# Conditions in all cases: mean and SEM, n ≥ 3
# 5-HT3A receptor K255A [1] = target: T1, 5-HT3A receptor K255A (Mus musculus, UniProt P23979, K282A); experiment: Two-electrode voltage clamp, 5-HT response, K255A receptor in Xenopus oocytes
# T1 sequence (P23979 24-489 K282A): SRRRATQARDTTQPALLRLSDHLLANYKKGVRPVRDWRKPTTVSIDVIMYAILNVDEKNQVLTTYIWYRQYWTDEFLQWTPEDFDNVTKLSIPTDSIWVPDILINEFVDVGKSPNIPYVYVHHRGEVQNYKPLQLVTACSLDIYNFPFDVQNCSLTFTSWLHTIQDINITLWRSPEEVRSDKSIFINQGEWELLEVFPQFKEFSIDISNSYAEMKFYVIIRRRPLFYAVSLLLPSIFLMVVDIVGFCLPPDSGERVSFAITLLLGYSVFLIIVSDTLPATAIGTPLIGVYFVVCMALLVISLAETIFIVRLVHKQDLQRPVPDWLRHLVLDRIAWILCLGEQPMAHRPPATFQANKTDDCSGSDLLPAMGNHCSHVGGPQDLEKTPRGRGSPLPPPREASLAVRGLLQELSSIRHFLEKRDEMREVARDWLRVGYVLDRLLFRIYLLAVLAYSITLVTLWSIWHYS
# Procedure: (§1) The mouse 5-HT3A cDNA (Q6J1J7) in pcDNA3.1 (for HEK cell transfection) or pGEMHE (for RNA production) was modified by QuikChange site-directed mutagenesis (Agilent Technologies) to create point mutants (verified by sequencing).
# (§2) Xenopus laevis oocytes from EcoCyte Biosciences (Austin Texas) were injected with 100 pg cRNA (generated with the ThermoFisher mMESSAGE mMACHINE T7 transcription kit) and left in injection media [88 mM NaCl, 2.4 mM NaHCO3, 1 mM KCl, 0.82 mM MgSO4 ·7H20, 5 mM Tris-HCl, 0.33 mM Ca(NO3)2·4H2O, 0.41 mM CaCl2·2H2O, 2.51 mM sodium pyruvate, 0.12 mg/ml theophylline, 0.05 mg/ml gentamicin, pH 7.5] at 16 °C for 24 h. […] The holding potential was −60 mV, using glass microelectrodes with a resistance of approximately 1 MΩ backfilled with 3M KCl.
# 5-HT3A receptor K255A [2] = target: T1, 5-HT3A receptor K255A; experiment: FlexStation membrane potential dye, 5-HT response, K255A receptor in HEK293 cells; set-up: expressed in transfected cells; host or cells: HEK293
# Procedure: as §1
# (§3) Human embryonic kidney (HEK) 293 cells were maintained at 37 °C at 5% CO2 in a humidified atmosphere, in Dulbecco's Modified Eagle's Medium/Nutrient Mix F12 (1:1) (Invitrogen, Paisley, UK) with GlutaMAX^TM and 10% fetal bovine serum (GE Healthcare) (DMEM/FBS) and passaged when confluent.
# (§4) As described previously (Price and Lummis, [2005]) cells were incubated for 45 min with fluorescent membrane potential-sensitive dye (Membrane Potential Blue kit, Molecular Devices) diluted in Flex buffer (10 mM HEPES, 115 mM NaCl, 1 mM KCl, 1 mM CaCl2, 1 mM MgCl2, and 10 mM glucose, pH 7.4), and subsequently assayed at room temperature for 180 s, with readings every 2 s. […] (log of the concentration of ligand), a is the minimum response, b is the maximum response, and nH is the Hill slope.
# 5-HT3A receptor Y441A = target: T2, 5-HT3A receptor Y441A (Mus musculus, UniProt P23979, Y468A); experiment: Two-electrode voltage clamp, 5-HT response, Y441A receptor in Xenopus oocytes; set-up: expressed in transfected cells; host or cells: Xenopus laevis oocytes (cRNA injection)
# T2 sequence (P23979 24-489 Y468A): T1 sequence (P23979 24-489 K282A) with A259K, Y445A
# Procedure: as §1, §2
# 5-HT3A receptor C290A [3] = target: T3, 5-HT3A receptor C290A (Mus musculus, UniProt P23979, C317A); experiment: Two-electrode voltage clamp, 5-HT response, C290A receptor in Xenopus oocytes
# T3 sequence (P23979 24-489 C317A): T1 sequence (P23979 24-489 K282A) with A259K, C294A
# Procedure: as §1, §2
# 5-HT3A receptor C290A [4] = target: T3, 5-HT3A receptor C290A; experiment: FlexStation membrane potential dye, 5-HT response, C290A receptor in HEK293 cells; set-up: expressed in transfected cells; host or cells: HEK293
# Procedure: as §1, §3, §4
structure (smiles),measurement,setting,value
NCCc1c[nH]c2ccc(O)cc12 [5-HT],nH,5-HT3A receptor K255A [1],1.9 ± 0.5
same,nH,5-HT3A receptor K255A [2],2.6± 0.1
same,nH,5-HT3A receptor Y441A,1.0 ± 0.1
same,nH,5-HT3A receptor C290A [3],0.5 ± 0.1
same,nH,5-HT3A receptor C290A [4],1.2 ± 0.2
